Data from patent US20090099135A1, “Pest control compositions and methods” (priority 2007, published 2009).

How the values were obtained:
tyramine receptor (TyrR) [1] = biological target: T1, tyramine receptor (TyrR) (Drosophila melanogaster, UniProt P22270); experiment: Saturation binding of 3H-tyramine to membranes of Schneider cells expressing tyramine receptor; conditions: membranes of cells stably transfected with pAcB-TyrR
T1 construct: oligonucleotides that are used to amplify the open reading frame of the Drosophila tyramine receptor (TyrR); expressed in transfected cells
T1 sequence (P22270 27-601): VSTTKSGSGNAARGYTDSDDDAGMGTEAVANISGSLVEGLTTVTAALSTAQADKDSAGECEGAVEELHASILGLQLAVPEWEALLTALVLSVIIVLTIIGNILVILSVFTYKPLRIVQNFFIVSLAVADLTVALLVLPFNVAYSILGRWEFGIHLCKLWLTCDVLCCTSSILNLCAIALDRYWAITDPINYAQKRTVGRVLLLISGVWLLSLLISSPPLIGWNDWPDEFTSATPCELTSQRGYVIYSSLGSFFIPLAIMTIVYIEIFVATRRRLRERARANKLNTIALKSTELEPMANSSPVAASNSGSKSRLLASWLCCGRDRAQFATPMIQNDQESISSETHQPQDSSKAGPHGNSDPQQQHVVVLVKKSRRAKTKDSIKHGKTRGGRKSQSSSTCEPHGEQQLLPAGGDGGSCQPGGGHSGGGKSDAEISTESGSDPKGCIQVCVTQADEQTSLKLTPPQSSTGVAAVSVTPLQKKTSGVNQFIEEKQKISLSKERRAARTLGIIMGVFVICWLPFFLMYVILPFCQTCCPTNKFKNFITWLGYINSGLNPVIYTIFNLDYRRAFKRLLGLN
Procedure: To study the kinetics of the tyramine receptor in stably transfected cells with pAcB-TyrR, crude membrane fractions are prepared from the transfected cells and used to calculate the equilibrium dissociation constant (Kd), Maximum Binding Capacity (Bmax), equilibrium inhibitor dissociation constant (Ki) and EC50 (effective concentration at which binding is inhibited by 50%). A preliminary study to determine the optimum concentration of membrane protein for receptor binding activity is performed. In this study, different concentrations of protein (about 10-50 μg/reaction) are incubated in about 1 ml binding buffer (50 mM Tris, pH 7.4, 5 mM MgCl2 and 2 mM ascorbic acid). The reaction is initiated by the addition of about 5 nM ^3H-tyramine with and without about […] unlabeled tyramine. After about 1 hr incubation at room temperature, reactions are terminated by filtration through GF/C filters (VWR), which have been previously soaked in about 0.3% polyethyleneimine (PEI). The filters are washed one time with about 4 ml ice cold Tris buffer and air dried before the retained radioactivity is measured using LSC. […]
To determine Bmax and Kd values for tyramine receptor (TyrR) in membranes expressing TyrR, saturation binding experiments are performed. […] Binding data is analyzed by curve fitting (GraphPad software, Prism) and the Kd for tyramine binding to its receptor is determined. […]

tyramine receptor = biological target: T2, tyramine receptor (Drosophila melanogaster, UniProt P22270); experiment: Whole cell 3H-tyramine binding in Schneider cells transfected with tyramine receptor
T2 construct: oligonucleotides that are used to amplify the open reading frame of the Drosophila tyramine receptor (TyrR); expressed in transfected cells
T2 sequence (P22270 27-601): T1 sequence (P22270 27-601)
Procedure: Cells transfected with the tyramine receptor (about 1×10^6 cells/ml) are cultured in each well of a multi-well plate. About 24 hours after plating the cells, the medium is withdrawn and replaced with about 1 ml insect saline (about 23 C). Different concentrations of ^3H-tyramine (about 0.1-10 nM) are added with and without about 10 μM unlabeled tyramine and incubated at room temperature (RT). After about a 20 minute incubation, the reaction is stopped by rapid aspiration of the saline and at least one wash with about 2 ml insect saline (about 23 C). Cells are solubilized in about 300 μl 0.3M NaOH for about 20 min at RT. Solubilized cells are transferred into about 4 ml Liquid Scintillation Solution (LSS) and vigorously vortexed for about 30 sec before counting the radioactivity using a Liquid Scintillation P-counter (Beckman, Model LS1801) (LSC).
Receptor specific binding data is expressed as fmol specific binding per 1×10^6 cells and measured as a function of ^3H-tyramine concentration. Specific binding values are calculated as the difference between values in the absence of and values in the presence of about 10 μM unlabeled tyramine. The maximum specific binding occurs at about 5 nM ^3H-tyramine.

Aedes aegypti = experiment: Pesticidal effect (KD) against Aedes aegypti; type: in vivo
Procedure: With reference to FIG. 4A, the pesticidal effect against Aedes aegypti was determined for Blend 23 (labeled “HL1”) and the composition including CL and Blend 23.
Similarly, with reference to FIG. 4B, the pesticidal effect against Aedes aegypti was determined for Blend 23 (labeled “HL1”) and the composition including CL and Blend 23.
Similarly, with reference to FIG. 4C, the pesticidal effect against Aedes aegypti was determined for Blend 23 (labeled “HL1”) and the composition including Imidacloprid and Blend 23.

Periplaneta americana = experiment: Pesticidal effect (mortality) against Periplaneta americana; type: in vivo; conditions: Blend 23 5%
Procedure: With reference to FIG. 6A, the pesticidal effect against Periplaneta americana was determined for Blend 23 (labeled “HL1”) and the composition including CL and Blend 23.
With reference to FIG. 6B, the pesticidal effect against Periplaneta americana was determined for Blend 23 (labeled “HL1”) and the composition including Imidacloprid and Blend 23.

Culex quinquefasciatus = experiment: Repellency effect against Culex quinquefasciatus (biting counts on volunteers' legs); type: in vivo
Procedure: The repellency of exemplary compositions of the present invention are compared to the repellency of their individual ingredients, and to a non-treated control. Southern house mosquitoes, Culex quinquefasciatus, are obtained as test organisms. Multiple human evaluators test each treatment in a replicated experiment. Experimentation is conducted in a laboratory using multiple-chambered, plexiglass modules, each chamber stocked with about 2-10 day-old colony-reared female mosquitoes. The modules are equipped with sliding doors to expose the mosquitoes to the legs of three volunteers. Treatments are applied at about 28.6 μl to 12 cm^2 rectangular sections of skin located directly beneath the chamber openings. Each volunteer conducts 2-minute biting counts for each treatment at five time intervals: 0, 1, 2, 4 & 6 hours post-treatment. New mosquitoes are stocked into the chamber for each time interval. Ambient temperature and humidity data is recorded with a HOBO datalogger. Percent repellency is determined according to the following formula: Control−Treatment/Control X 100.

[2] = test system: Blattella germanica (German cockroaches); experiment: Pesticidal effect against German cockroaches (KD and 100% kill time); type: in vivo
Procedure: With reference to Table 15, the pesticidal effect against Blattella germanica (German cockroaches) was determined for DM, Blend 12, and the composition including DM and Blend 12.
A synergistic effect was shown for the combination treatment that results in an average KD of the insects in 5 sec, and 100% killing of the insects in 17 seconds.

Whitefly (on zucchini) = experiment: Interim field plot ratings, South Georgia: whitefly on zucchini; type: in vivo; conditions: rate not given; 1 wk after treatment
Thrips (on cotton) = experiment: Interim field plot ratings, South Georgia: thrips on cotton; type: in vivo; conditions: rate not given; 1 wk after treatment
[3] = Interim field plot ratings, South Georgia: flower damage rating; type: in vivo; conditions: rate not given; 1 wk after treatment
aphids (on cotton) = experiment: Interim field plot ratings, South Georgia: aphids on cotton; type: in vivo; conditions: rate not given; 1 wk after treatment
TyrR = biological target: T3, TyrR (Drosophila melanogaster, UniProt P22270); experiment: TyrR competition binding assay (% binding inhibition)
T3 sequence (P22270 27-601): T1 sequence (P22270 27-601)
Procedure: When the chemical(s) and compound(s) are combined to provide the compositions of the present invention, there is a synergistic effect.
(§1) To determine the affinities of several ligands for TyrR, increasing concentration of several compounds are tested for their ability to inhibit binding of about 2 nM ^3H-tyramine. For both saturation and inhibition assays total and non-specific binding is determined in the absence and presence of about 10 μM unlabeled-tyramine, respectively. Receptor binding reactions are incubated for about 1 hour at room temperature (RT) in restricted light. Reactions are terminated by filtration through GF/C filters (VWR), which have been previously soaked in about 0.3% polyethyleneimine (PEI). The filters are washed one time with about 4 ml ice cold Tris buffer and air dried before retained radioactivity is measured using LSC. Binding data is analyzed by curve fitting (GraphPad software, Prism).

Drosophila sp. = experiment: Pesticidal effect (KD) against Drosophila sp.; type: in vivo; conditions: FIG. 4D; Imidacloprid 50 ppm; Blend 23 2.5%; combination of both
Procedure: Similarly, with reference to FIG. 4D, the pesticidal effect against Drosophila sp. was determined for Blend 23 (labeled “HL1”) and the composition including Imidacloprid and Blend 23.

tyramine receptor (TyrR) [4] = biological target: T1, tyramine receptor (TyrR); experiment: Inhibition binding of 3H-tyramine to membranes of Schneider cells expressing tyramine receptor; conditions: compared with tyramine
Procedure: To study the kinetics of the tyramine receptor in stably transfected cells with pAcB-TyrR, crude membrane fractions are prepared from the transfected cells and used to calculate the equilibrium dissociation constant (Kd), Maximum Binding Capacity (Bmax), equilibrium inhibitor dissociation constant (Ki) and EC50 (effective concentration at which binding is inhibited by 50%). A preliminary study to determine the optimum concentration of membrane protein for receptor binding activity is performed. In this study, different concentrations of protein (about 10-50 μg/reaction) are incubated in about 1 ml binding buffer (50 mM Tris, pH 7.4, 5 mM MgCl2 and 2 mM ascorbic acid). The reaction is initiated by the addition of about 5 nM ^3H-tyramine with and without about […] unlabeled tyramine. After about 1 hr incubation at room temperature, reactions are terminated by filtration through GF/C filters (VWR), which have been previously soaked in about 0.3% polyethyleneimine (PEI). The filters are washed one time with about 4 ml ice cold Tris buffer and air dried before the retained radioactivity is measured using LSC. Binding data is analyzed by curve fitting (GraphPad software, Prism). […] Therefore, about 10 μg protein/reaction is used.
as §1

**Q.** Which Bmax (tyramine receptor (TyrR) [1]) does the source give for `NCCc1ccc(O)cc1` [Blend 3H-tyramine, ^3H-tyramine] here?
**A.** about 0.679 μmol/mg protein

**Q.** And the Kd (tyramine receptor (TyrR) [1])?
**A.** ~1.26 nM

**Q.** And the “concentration at which maximum specific binding occurs” value (tyramine receptor; whole transfected cells)?
**A.** about 5 nM

**Q.** Which results are given for `CN/C(=N\[N+](=O)[O-])NCc1cnc(Cl)s1` [CL, clothianidin]?
**A.** KD of target insect (Aedes aegypti; FIG. 4A, CL alone 500 ppm, CL 167 ppm combined with 2.5% Blend 23): no KD; KD of target insect (Aedes aegypti; FIG. 4B, CL alone 250 ppm, CL 167 ppm combined with 2.5% Blend 23): no KD; mortality 30 minutes post-treatment (Periplaneta americana; FIG. 6A, CL 0.05%, combination of both): no mortality

**Q.** Which “Percent repellency, 0” value (Culex quinquefasciatus; 0 hours post-treatment) does the source give for `CCN(CC)C(=O)c1cccc(C)c1` [DEET, N,N-DIETHYL-3-METHYLBENZAMIDE] here?
**A.** 40%

**Q.** What about the “Percent repellency, 1 Hour” value (Culex quinquefasciatus; 1 hour post-treatment) of the same compound?
**A.** 20%

**Q.** And the “Percent repellency, 2 Hours” value (Culex quinquefasciatus; 2 hours post-treatment)?
**A.** 10%

**Q.** What about the “Percent repellency, 4 Hours” value (Culex quinquefasciatus; 4 hours post-treatment) of the same compound?
**A.** 5%

**Q.** What about the “Percent repellency, 6 Hours” value (Culex quinquefasciatus; 6 hours post-treatment) of the same compound?
**A.** 0%

**Q.** And the “Activity Ratio (repellency at 1 hour)” value (Culex quinquefasciatus; effect of composition (5% DEET and 95% Blend 9) divided by effect of comparison composition)?
**A.** (1.00)/(0.20) = 5.0

**Q.** And the “Synergy Coefficient (repellency at 1 hour)” value (Culex quinquefasciatus; of composition (5% DEET and 95% Blend 9) relative to comparison composition)?
**A.** 100

**Q.** Which results are given for `CC1(C)[C@H](C(=O)O[C@H](C#N)c2cccc(Oc3ccccc3)c2)[C@@H]1C=C(Br)Br` [DM, deltamethrin]?
**A.** 100% Kill (time) ([2]; Example 4, DM 0.037 mg/cm^2, Blend 12 1.9 mg/cm^2): 15 min; 100% Kill (time) ([2]; Table 16, DM 0.037 mg/cm^2): 12 min; Whitefly (on zucchini) Adult, insect count (Whitefly (on zucchini)): 18; Whitefly (on zucchini) Nymph, insect count (Whitefly (on zucchini)): 142; Thrips (on cotton), insect count (Thrips (on cotton)): 13; Flower damage (1-5 rating scale; 1 = no damage) [3]: 2.2; aphids (on cotton) Adults, insect count (aphids (on cotton)): 15; aphids (on cotton) Nymph, insect count (aphids (on cotton)): 26; % TyrR Binding Inhibition (TyrR): 10%

**Q.** For `O=[N+]([O-])NC1=NCCN1Cc1ccc(Cl)nc1` [Imidacloprid, 1-[(6-Chloro-3-pyridinyl)methyl]-N-nitro-2-imidazolidinimine], which “Whitefly (on zucchini) Adult, insect count” value (Whitefly (on zucchini)) is on record?
**A.** 16

**Q.** And the “Whitefly (on zucchini) Nymph, insect count” value (Whitefly (on zucchini))?
**A.** 5

**Q.** What about the “Thrips (on cotton), insect count” value (Thrips (on cotton)) of the same compound?
**A.** 9

**Q.** And the “Flower damage (1-5 rating scale; 1 = no damage)” value [3]?
**A.** 2.0

**Q.** What about the “KD of target insect at 30 seconds post-treatment” value (Aedes aegypti; FIG. 4C, Imidacloprid 250 ppm, Blend 23 2.5%, combination of both) of the same compound?
**A.** 20%

**Q.** And the “KD of target insect” value (Aedes aegypti; FIG. 5, Imidacloprid 500 ppm, B5028 5%, combination of both)?
**A.** no KD

**Q.** What about the “aphids (on cotton) Adults, insect count” value (aphids (on cotton)) of the same compound?
**A.** 0.3

**Q.** And the “aphids (on cotton) Nymph, insect count” value (aphids (on cotton))?
**A.** 1.6

**Q.** What about the “mortality 30 minutes post-treatment” value (Periplaneta americana; FIG. 6B, Imidacloprid alone 0.05%, 0.033%, 0.01%, Imidacloprid 0.033% combined with 5% Blend 23) of the same compound?
**A.** no mortality

**Q.** What about the “KD of target insect at 30 seconds post-treatment” value (Drosophila sp.) of the same compound?
**A.** 0%

**Q.** Which “efficiency at displacing 3H-tyramine binding” value (“efficiency” for short) (tyramine receptor (TyrR) [4]) does the source give for `NCC(O)c1ccc(O)cc1` (stereo not shown) [Octopamine] here?
**A.** less efficient than tyramine

**Q.** Which “% TyrR Binding Inhibition” value (TyrR) does the source give for `NCCc1ccc(O)cc1` [Tyramine (TA), Tyramine] here?
**A.** 75%

**Q.** What about the “response of untransfected cells” value (tyramine receptor; concentrations as high as about 100 μM) of the same compound?
**A.** do not respond

**Q.** For `NCCc1ccc(O)c(O)c1` [dopamine, Dopamine], which “efficiency” value (tyramine receptor (TyrR) [4]) is on record?
**A.** less efficient than tyramine

**Q.** With `NCCc1c[nH]c2ccc(O)cc12` [serotonin, Serotonin] as the compound, how does the “efficiency” value (tyramine receptor (TyrR) [4]) read?
**A.** less efficient than tyramine
